Where two headings read alike, the source gives them in different places.
Legend:
[1] = target: DNA sequence homologous to I (Seq II, SEQ ID NO:2); test: SPR binding specificity, Seq II
Protocol: (§1) Graphical analysis of Surface Plasmon Resonance (SPR) data was carried out using DeltaGraph (Rockware Inc.). SPR analysis was conducted on a Reichert SR7000 refractometer using Reichert gold sensor slides that consist of a mixed self-assembled monolayer of thiol-PEG-alcohols and thio-PEG-carboxylic acids (˜9:1; PEG=polyethylene glycol). Amine functionalized small molecules were attached by […]/EDC coupling to the carboxy termini of the surface. After activating the monolayer, molecules were covalently attached through the addition of a 1 mg/mL solution of molecule in a sodium acetate buffer (20 mM, pH=5.5). Unreacted activated esters were quenched through the addition of ethanolamine. A flow rate of 10 μL/min and injection volumes of 150 μL was used throughout the experiment. RNA solutions were made to be 15.3 nM, 62.5 nM, 250 nM, 500 nM, 1 μM, 2 μM, 10 μM, and 50 μM. […]
(§2) Specificity was assessed by measuring the affinity of 1-1 to three other oligonucleotides: the DNA sequence homologous to I (Seq II, FIG. 7C, SEQ ID NO:2), the alternate RNA stem-loop (Seq III, FIG. 7D, SEQ ID NO:3) (Karan et al., “RNA-Selective Coordination Complexes Identified via Dynamic Combinatorial Chemistry,” J. Am. Chem. Soc. 123:7455-7456 (2001), which is hereby incorporated by reference in its entirety), and an RNA stem loop with an altered loop sequence (Seq IV, FIG. 7E, SEQ ID NO:4).

[2] = target: alternate RNA stem-loop (Seq III, SEQ ID NO:3); test: SPR binding specificity, Seq III
Protocol: as §1, §2

[3] = target: RNA stem loop with an altered loop sequence (Seq IV, SEQ ID NO:4); test: SPR binding specificity, Seq IV; conditions: read-out: affinity for sequence IV
Protocol: as §1, §2

[4] = target: HIV-1 frameshift-inducing RNA stem-loop (SEQ ID NO:1); test: Fluorescence titration of Cy-3 labeled HIV-1 RNA stem-loop; assay type: binding; conditions: stem-loop 4 × 10^−7 M, PBS buffer, 25° C.
Protocol: The binding of dicarba analogs to the HIV-1 frameshift-inducing RNA was measured using fluorescence spectroscopy. Fluorescence titrations were performed on a Varian Cary eclipse fluorescence spectrophotometer using 1 cm path-length quartz fluorescence cell. The solution of Cy-3 labeled HIV-1 RNA stem-loop in PBS buffer (400 μL, 400 nM) was taken in the cell and excited with a wavelength of 550 nm. A PMT voltage of 715 V was used for collecting the fluorescence data and the emission spectrum was collected from 555 to 600 nm wavelength range. The ligand solution in PBS buffer was added to the target RNA in the cell in either 2 or 4 μL increments and was allowed to equilibrate for 10 minutes before recording the emission spectrum. Statistical analysis of the data was carried out using Origin 7 (OriginLab corporation). Binding constants were determined by fitting the data to one-site binding model equation.
A 5′-Cy3 labeled upper stem-loop of HIV-1 RNA (SEQ ID NO:1) was titrated with increasing amount of the dicarba analogs in a phosphate buffer (PBS, pH 7.4) using the same protocol to that described in Example 3 above. The fluorescence intensity of the labeled RNA stem-loop decreased as a function of the ligand concentration. […] Normally, one would expect a greater difference between the affinities of the two isomers.
To further evaluate the binding selectivity of dicarba analogs to the frameshift-inducing stem-loop, fluorescence titrations were repeated in the presence of twenty-fold excess concentration of yeast tRNA. […] In an interesting result it was discovered that the monomeric compound (5) also bound to the HIV-1 RNA stem-loop with similar affinity as that of the other analogs, but the binding affinity was diminished in the presence of tRNA. […] Quinoline is a known intercalator of nucleotide bases and has the capability to interact with RNA non-specifically. But it is the peptidic part of the molecule in ligands 5-5 E and 5-5 Z that imparts specificity to the interaction between the ligand and the RNA stem-loop. The peptidic part on monomer 5 is insufficient to impart specificity to the interaction as evident from the results.

[5] = tested on: HIV-1 frameshift-inducing RNA stem-loop; test: Resin-bead fluorescence microscopy screen (RBDCC) with Cy3-labeled RNA; assay type: binding; conditions: x-y: x resin-bound, y solution phase; 500 nM RNA stem-loop, 72 hours, 50 msec exposure
Protocol: First, as a control, 450 beads (150 of each size, 3 beads/compound, 387 nmol total) were placed in a 1.5 ml solid phase reaction vessel. To this was added a 1 ml solution of 1 μM RNA-Cy3 in phosphate buffer. This solution was agitated for 3 hours on a LabQuake™ rotator. After such time, the solution was drained by vacuum and washed three times with buffer (1 ml, 1 min. each). After washing, the resin was suspended in 2 ml buffer and placed in a Petri dish.
Next, RBDCC experiments were run in quadruplet. […] After such time, the solution was removed from 1 of the 4 experiments and the resin was washed with buffer, plated with 2 ml buffer, and analyzed by fluorescence microscopy as described above. […]
1, 2, and 3 were individually synthesized on TentaGel (0.86 nmol/bead), and equilibrated as described above in separate vessels containing only 1, 2, or 3 solution phase monomers and 500 nM RNA stem-loop, half the concentration used in the initial screen. After 72 hours the resin was washed in a manner identical to the conditions of screen number 4 (i.e., the highest stringency screen) and analyzed by fluorescence microscopy (50 msec. exposure) (see FIGS. 6A-I).

With `CCc1nc2ccccc2cc1C(=O)N[C@@H](CSSC[C@H](NC(=O)c1cc2ccccc2nc1CC)C(=O)N1CCC[C@H]1C(=O)N[C@@H](Cc1ccccc1)C(=O)NCCCN)C(=O)N1CCC[C@H]1C(=O)N[C@@H](Cc1ccccc1)C(=O)NCCCN` [dimer 1-1] the “affinity for sequence II” value [1] was “no measurable affinity”, the “affinity for sequence III” value [2] was “no measurable affinity” and the Kd [3] was > 90000 nM. For the same compound, the Kd ([4]; 8 μM tRNA (twenty-fold excess), read-out: Binding Affinity (Kd) in the presence of excess yeast tRNA) was 320 ± 70 nM, the Kd ([4]; fluorescence titration, read-out: Binding Affinity (Kd)) was 350 ± 110 nM and the “affinity for the RNA stem-loop by bead fluorescence intensity” value [5] was “highest affinity”.
